Measurements as given in ChEMBL document CHEMBL3046511, “Controlling Efficacy of Strobilurin Derivatives against Wheat Powdery Mildew and Eyespot” (J Pestic Sci, 2002).
In brackets after ≈: the same amount, converted by molar mass.

Key:
[1] = tested on: Blumeria graminis f. sp. tritici; experiment: Fungicidal activity against Blumeria graminis f. sp. tritici in 2 weeks old wheat seedlings assessed as control of powdery mildew at 0.5 ppm pretreated 24 hr before by foliar application at 22 +/- 2 degC under greenhouse and leaf area measured after 10 days of inoculation; type: functional
[2] = tested on: Blumeria graminis f. sp. tritici; experiment: Fungicidal activity against Blumeria graminis f. sp. tritici in 2 weeks old wheat seedlings assessed as control of powdery mildew at 31.3 ppm pretreated 24 hr before by foliar application at 22 +/- 2 degC under greenhouse and leaf area measured after 10 days of inoculation; type: functional
[3] = tested on: Blumeria graminis f. sp. tritici; experiment: Fungicidal activity against Blumeria graminis f. sp. tritici in 2 weeks old wheat seedlings assessed as control of powdery mildew at 7.8 ppm pretreated 24 hr before by foliar application at 22 +/- 2 degC under greenhouse and leaf area measured after 10 days of inoculation; type: functional
[4] = tested on: Blumeria graminis f. sp. tritici; experiment: Fungicidal activity against Blumeria graminis f. sp. tritici in 2 weeks old wheat seedlings assessed as control of powdery mildew at 0.125 ppm pretreated 24 hr before by foliar application at 22 +/- 2 degC under greenhouse and leaf area measured after 10 days of inoculation; type: functional
[5] = tested on: Blumeria graminis f. sp. tritici; experiment: Fungicidal activity against Blumeria graminis f. sp. tritici in 2 weeks old wheat seedlings assessed as control of powdery mildew at 2 ppm pretreated 24 hr before by foliar application at 22 +/- 2 degC under greenhouse and leaf area measured after 10 days of inoculation; type: functional
[6] = tested on: Blumeria graminis f. sp. tritici; experiment: Fungicidal activity against Blumeria graminis f. sp. tritici in 2 weeks old wheat seedlings assessed as control of powdery mildew pretreated 24 hr before by foliar application at 22 +/- 2 degC under greenhouse and leaf area measured after 10 days of inoculation; type: functional, organism-based
Oculimacula yallundae [7] = experiment: Fungicidal activity against W-type Oculimacula yallundae assessed as inhibition of mycelial growth at 20 degC for 14 days in presence of 50 ppm flovone; type: functional, organism-based; settings: for MIC: Oculimacula yallundae, 336 h
Podosphaera fuliginea [8] = experiment: Fungicidal activity against Podosphaera fuliginea in cucumber cotyledon assessed as control of powdery mildew measured as length inhibition at 7.8 ppm treated 24 hr inoculation at 22 +/- 2 degC measured after 10 days by vapour-phase activity test; type: functional
Podosphaera fuliginea [9] = experiment: Fungicidal activity against Podosphaera fuliginea in cucumber cotyledon assessed as control of powdery mildew measured as width inhibition at 7.8 ppm treated 24 hr inoculation at 22 +/- 2 degC measured after 10 days by vapour-phase activity test; type: functional
Oculimacula yallundae [10] = experiment: Fungicidal activity against W-type Oculimacula yallundae assessed as inhibition of mycelial growth at 20 degC for 14 days; type: functional, organism-based; settings: for MIC: Oculimacula yallundae, 336 h
[11] = tested on: Blumeria graminis f. sp. tritici; experiment: Fungicidal activity against Blumeria graminis f. sp. tritici in 2 weeks old wheat seedlings assessed as control of powdery mildew at 0.06 ppm pretreated 24 hr before by foliar application at 22 +/- 2 degC under greenhouse and leaf area measured after 10 days of inoculation; type: functional
[12] = tested on: Blumeria graminis f. sp. tritici; experiment: Fungicidal activity against Blumeria graminis f. sp. tritici in 2 weeks old wheat seedlings assessed as control of powdery mildew at 125 ppm pretreated 24 hr before by foliar application at 22 +/- 2 degC under greenhouse and leaf area measured after 10 days of inoculation; type: functional
Podosphaera fuliginea [13] = experiment: Fungicidal activity against Podosphaera fuliginea in cucumber cotyledon assessed as control of powdery mildew measured as width inhibition at 2 ppm treated 24 hr inoculation at 22 +/- 2 degC measured after 10 days by vapour-phase activity test; type: functional
Podosphaera fuliginea [14] = experiment: Fungicidal activity against Podosphaera fuliginea in cucumber cotyledon assessed as control of powdery mildew measured as length inhibition at 2 ppm treated 24 hr inoculation at 22 +/- 2 degC measured after 10 days by vapour-phase activity test; type: functional

SMILES | Activity [1] [%] | Activity [2] [%] | Activity [3] [%] | Activity [4] [%] | Activity [5] [%] | EC50 [6] [ppm] | EC50 (Oculimacula yallundae [7]) [ppm] | MIC (Oculimacula yallundae [7]) [µg/mL] | INH (Podosphaera fuliginea [8]) [mm] | INH (Podosphaera fuliginea [9]) [mm] | EC50 (Oculimacula yallundae [10]) [ppm] | MIC (Oculimacula yallundae [10]) [µg/mL] | Activity [11] [%] | Activity [12] [%] | INH (Podosphaera fuliginea [13]) [mm] | INH (Podosphaera fuliginea [14]) [mm]
CNC(=O)/C(=N/OC)c1ccccc1Oc1ncc(Cl)cc1C(F)(F)F | 89 | 100 | 100 | 60 | 96 | 0.05 | 0.08 | 1 | 8.9 | 10.7 | 0.33 | < 125 | 50 |  |  | 
CNC(=O)/C(=N/OC)c1ccccc1Oc1cc(C)ccc1C | 94 | 100 | 100 | 79 | 98 | 0.07 | 0.03 | 1 |  |  | 0.13 | < 125 | 22 |  |  | 
CO/C=C(/C(=O)OC)c1ccccc1Oc1cc(Oc2ccccc2C#N)ncn1 [AZOXYSTROBIN] | 35 | 87 | 85 | 5 | 64 | 1.39 | 0.41 | 25 |  |  | 3.2 | < 125 |  | 95 |  | 
OC(c1ccc(Cl)cc1)(c1cncnc1)c1ccccc1Cl (stereo unspecified) [FENARIMOL] | 50 | 98 | 94 | 0 | 84 | 0.58 |  |  |  |  | 1.02 | 25 (≈ 75.5 µM) |  | 98 |  | 
CO/N=C(/C(=O)OC)c1ccccc1COc1ccccc1C [KRESOXIM-METHYL] | 39 | 92 | 86 | 14 | 68 | 0.95 | 0.11 | 5 | <20 | <20 | 0.79 | < 125 |  | 100 | 13.5 | 12.7
CCCN(CCOc1c(Cl)cc(Cl)cc1Cl)C(=O)n1ccnc1 [PROCHLORAZ] | 23 | 70 | 70 | 0 | 57 | 3.39 |  |  |  |  | 0.06 | 5 (≈ 13.3 µM) |  | 92 |  | 
COC(=O)NC(=S)Nc1ccccc1NC(=S)NC(=O)OC [THIOPHANATE METHYL] |  |  |  |  |  |  |  |  |  |  | 1.18 | 25 (≈ 73 µM) |  |  |  | 
CC(C)(C)C(=O)C(Oc1ccc(Cl)cc1)n1cncn1 (stereo unspecified) [TRIADIMEFON] | 30 | 94 | 82 | 0 | 57 | 1.6 |  |  | <20 | <20 | 7.81 | < 125 |  | 99 |  | 
